Measurements from patent US9856279B2 (AGIOS PHARMACEUTICALS, INC, priority 2011, dated 2018).
Read-outs that look alike come from different tables or passages of the source.

Assays:
IDH1 R132H = IDH1 R132H (Homo sapiens, UniProt O75874, R132H); test: Assay for IDH1 R132H inhibitors (NADPH/aKG, resazurin detection); type: biochemical; conditions: enzyme assay of Example 12; read-out: IDH1R132H IC50
In short: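 Compound added to substrate mix (8 uM NADPH, 2 mM aKG), then enzyme mix (0.2 μg/ml IDH1 R132H); 50 min RT in 20 mM Tris pH 7.5, 150 mM NaCl, 10 mM MgCl2, 0.03% BSA. Resazurin detection mix (30 μM) 5 min RT; resorufin fluorescence Ex544/Em590.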

HT1080 cells = test: Cellular assay for IDH1m inhibitors: inhibition of 2-HG production (LC-MS, 48 hours) in HT1080 cells; type: cell-based; conditions: Homo sapiens, HT-1080; inhibition of 2-HG production, HT1080 cells; read-out: HT1080 IC50
In short: (§1)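 HT1080 or U87MG cells were seeded at 5000/well in DMEM with 10% FBS, incubated overnight, then treated with compounds (0.2% DMSO final) for 48 h. Medium 2-HG was quantified by LC-MS, and IC50 was taken as the concentration reducing 2-HG by 50% versus DMSO control.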

U87MG cells = test: Cellular assay for IDH1m inhibitors: inhibition of 2-HG production (LC-MS, 48 hours) in U87MG cells; type: cell-based; conditions: inhibition of 2-HG production, U87R132H cells, read-out: U87R132H IC50
In short: as §1

IDH1 R132H, sequence (O75874 whole entry R132H): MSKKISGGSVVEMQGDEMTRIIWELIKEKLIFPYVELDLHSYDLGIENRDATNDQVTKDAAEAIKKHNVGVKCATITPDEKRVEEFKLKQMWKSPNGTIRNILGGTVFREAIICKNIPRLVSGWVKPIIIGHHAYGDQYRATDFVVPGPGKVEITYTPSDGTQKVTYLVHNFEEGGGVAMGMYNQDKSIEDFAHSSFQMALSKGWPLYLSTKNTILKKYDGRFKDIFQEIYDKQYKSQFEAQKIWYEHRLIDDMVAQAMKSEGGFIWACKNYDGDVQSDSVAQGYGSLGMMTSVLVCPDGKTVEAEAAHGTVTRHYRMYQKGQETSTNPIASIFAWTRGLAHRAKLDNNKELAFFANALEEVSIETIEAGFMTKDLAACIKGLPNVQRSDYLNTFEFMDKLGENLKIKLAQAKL

Row | SMILES | IC50 (IDH1 R132H) [nM] | IC50 (HT1080 cells) [nM] | IC50 (U87MG cells; Homo sapiens, U-87 MG) [nM] | IC50 (U87MG cells) [nM]
1 | C=Cc1cc(-c2cc(C#N)c(N3CCN(C(=O)C4CC4)[C@H](C4CC4)C3)nc2C2CC2)cnn1 [Compound 613, (R)-2-(4-(cyclopropanecarbonyl)-3-cyclopropylpiperazin-1-yl)-6-cyclopropyl-5-(6-vinylpyridazin-4-yl)nicotinonitrile] | < 500 | < 500 | < 500 | –
2 | C=CS(=O)(=O)Nc1cccc(-c2cc(C#N)c(N3CCN(C(=O)CCOC)[C@H](C)C3)nc2C2CC2)c1 [Compound 429, (R)—N-(3-(5-cyano-2-cyclopropyl-6-(4-(3-methoxypropanoyl)-3-methylpiperazin-1-yl)pyridin-3-yl)phenyl)ethenesulfonamide] | < 500 | 1000 to 10000 | 1000 to 10000 | –
3 | COCCC(=O)N1CCN(c2nc(C3CC3)c(-c3cccc4[nH]ncc34)cc2C#N)C[C@H]1C [Compound 438, (R)-6-cyclopropyl-5-(1H-indazol-4-yl)-2-[4-(3-methoxy-propionyl)-3-methyl-piperazin-1-yl]-nicotinonitrile] | < 500 | 1000 to 10000 | 500 to 1000 | –
4 | C=Cc1ccnc(Nc2cc(C#N)c(N3CCN(C(=O)CCOC)[C@H](C)C3)nc2C2CC2)c1 [Compound 647, (R)-6-cyclopropyl-2-(4-(3-methoxypropanoyl)-3-methylpiperazin-1-yl)-5-((4-vinylpyridin-2-yl)amino)nicotinonitrile] | < 500 | < 500 | < 500 | –
5 | C=Cc1cc(N(C)c2cc(C#N)c(N3CCN(C(=O)CCOC)[C@H](C)C3)nc2C2CC2)ccn1 [Compound 690, (R)-6-cyclopropyl-2-(4-(3-methoxypropanoyl)-3-methylpiperazin-1-yl)-5-(methyl(2-vinylpyridin-4-yl)amino)nicotinonitrile] | < 500 | < 500 | < 500 | –
6 | C=Cc1cc(Oc2cc(C#N)c(N3CCN(C(=O)CCO)[C@H](C4CC4)C3)nc2C2CC2)ccn1 [Compound 692, (R)-6-cyclopropyl-2-(3-cyclopropyl-4-(3-hydroxypropanoyl)piperazin-1-yl)-5-(2-vinylpyridin-4-yloxy)nicotinonitrile] | < 500 | < 500 | < 500 | –
7 | C=CC(=O)Nc1cccc(C(C)Oc2cc(C#N)c(N3CCN(C(=O)CCOC)[C@H](C)C3)nc2C2CC2)c1 (stereo partly drawn) [Compound 407, N-(3-(1-(5-cyano-2-cyclopropyl-6-((R)-4-(3-methoxypropanoyl)-3-methylpiperazin-1-yl)pyridin-3-yloxy)ethyl)phenyl)acrylamide] | < 500 | < 500 | < 500 | –
8 | C=Cc1cc(-c2cc(C#N)c(N3CCN(C(=O)CCOC)[C@H](C4CC4)C3)nc2C2CC2)ccn1 [Compound 530, (R)-2-cyclopropyl-6-(3-cyclopropyl-4-(3-methoxypropanoyl)piperazin-1-yl)-2′-vinyl-3,4′-bipyridine-5-carbonitrile] | < 500 | < 500 | < 500 | –
9 | COCCC(=O)N1CCN(c2nc(C3CC3)c(Nc3cc(C#N)ccn3)cc2C#N)C[C@H]1C1CC1 [Compound 792, (R)-5-(4-cyanopyridin-2-ylamino)-6-cyclopropyl-2-(3-cyclopropyl-4-(3-methoxypropanoyl)piperazin-1-yl)nicotinonitrile] | < 500 | 1000 to 10000 | 1000 to 10000 | –
10 | C=Cc1ncc2c(-c3cc(C#N)c(N4CCN(C(=O)CCO)[C@H](C5CC5)C4)nc3C3CC3)cccc2n1 [Compound 737] | < 500 | 500 to 1000 | – | 500 to 1000
11 | COCCC(=O)N1CCN(c2nc(C3CC3)c(-c3ccc(C#N)cc3)c(C)c2C#N)C[C@H]1C [Compound 347, (R)-5-(4-cyano-phenyl)-6-cyclopropyl-2-[4-(3-methoxy-propionyl)-3-methyl-piperazin-1-yl]-4-methyl-nicotinonitrile] | < 500 | < 500 | < 500 | –
12 | C=Cc1cc(-c2cc(C#N)c(N3CCN(C(=O)CCO)[C@H](C)C3)nc2C2CC2)c2ccccc2n1 [Compound 591, (R)-6-cyclopropyl-2-(4-(3-hydroxypropanoyl)-3-methylpiperazin-1-yl)-5-(2-vinylquinolin-4-yl)nicotinonitrile] | < 500 | < 500 | < 500 | –
13 | C=Cc1ccc2ccc(-c3cc(C#N)c(N4CCN(C(=O)CCO)[C@H](C5CC5)C4)nc3C3CC3)cc2n1 [Compound 720, (R)-6-cyclopropyl-2-(3-cyclopropyl-4-(3-hydroxypropanoyl)piperazin-1-yl)-5-(2-vinylquinolin-7-yl) nicotinonitrile] | < 500 | < 500 | < 500 | –
14 | C=Cc1cc(-c2cc(C#N)c(N3CCN(C(=O)CC(C)(C)O)[C@H](C4CC4)C3)nc2C2CC2)ccn1 [Compound 561, (R)-2-cyclopropyl-6-(3-cyclopropyl-4-(3-hydroxy-3-methylbutanoyl)piperazin-1-yl)-2′-vinyl-3,4′-bipyridine-5-carbonitrile] | < 500 | < 500 | < 500 | –
15 | COCCC(=O)N1CCN(c2nc(C3CC3)c(-c3ccsc3)c(C)c2C#N)C[C@H]1C [Compound 270, (R)-6-cyclopropyl-2-(4-(3-methoxypropanoyl)-3-methylpiperazin-1-yl)-4-methyl-5-(thiophen-3-yl)nicotinonitrile] | 500 to 1000 | 1000 to 10000 | 1000 to 10000 | –
16 | C=CC(=O)N1CCC=C(c2cc(C#N)c(N3CCN(C(=O)COC)[C@H](C4CC4)C3)nc2C2CC2)C1 [Compound 728, (R)-5-(1-acryloyl-1,2,5,6-tetrahydropyridin-3-yl)-6-cyclopropyl-2-(3-cyclopropyl-4-(2-methoxyacetyl)piperazin-1-yl)nicotinonitrile] | < 500 | < 500 | < 500 | –
17 | COCCC(=O)N1CCN(c2nc(C3CC3)c(-c3ccc(OC(F)(F)F)cc3)c(C)c2C#N)C[C@H]1C [Compound 263, (R)-6-cyclopropyl-2-(4-(3-methoxypropanoyl)-3-methylpiperazin-1-yl)-4-methyl-5-(4-(trifluoromethoxy)phenyl)nicotinonitrile] | < 500 | 500 to 1000 | 1000 to 10000 | –
18 | C=Cc1ccnc(Nc2cc(C#N)c(N3CCN(C(=O)C[C@H]4CCO4)[C@H](C(C)C)C3)nc2C2CC2)c1 [Compound 764, 6-cyclopropyl-2-((R)-3-isopropyl-4-(2-((R)-oxetan-2-yl)acetyl)piperazin-1-yl)-5-((4-vinylpyridin-2-yl)amino)nicotinonitrile] | < 500 | < 500 | < 500 | –
19 | COCCC(=O)N1CCN(c2nc(C3CC3)c(-c3ccc(NS(C)(=O)=O)cc3)c(C)c2C#N)C[C@H]1C [Compound 380, (R)—N-(4-{5-cyano-2-cyclopropyl-6-[4-(3-methoxy-propionyl)-3-methyl-piperazin-1-yl]-4-methyl-pyridin-3-yl}-phenyl)-methane sulfonamide] | < 500 | 500 to 1000 | 500 to 1000 | –
20 | COCCC(=O)N1CCN(c2nc(C3CC3)c(-c3cccc(NC(=O)[C@H](C)Cl)c3)cc2C#N)C[C@H]1C [Compound 447, (S)-2-chloro-N-(3-(5-cyano-2-cyclopropyl-6-((R)-4-(3-methoxypropanoyl)-3-methylpiperazin-1-yl)pyridin-3-yl)phenyl)propanamide] | 500 to 1000 | 1000 to 10000 | 1000 to 10000 | –
21 | C[C@@H]1CN(c2nc(C3CC3)c(-c3ccc(F)cc3)cc2C#N)CCN1C(=O)C1CC1 [Compound 550, (R)-2-(4-(cyclopropanecarbonyl)-3-methylpiperazin-1-yl)-6-cyclopropyl-5-(4-fluorophenyl)nicotinonitrile] | 500 to 1000 | < 500 | < 500 | –
22 | COCCC(=O)N1CCN(c2nc(C3CC3)c(-c3ccc4c(c3)CC(=O)N4)cc2C#N)C[C@H]1C [Compound 384, (R)-6-cyclopropyl-2-(4-(3-methoxypropanoyl)-3-methylpiperazin-1-yl)-5-(2-oxoindolin-5-yl)nicotinonitrile] | < 500 | 500 to 1000 | 500 to 1000 | –
23 | C=Cc1cc(N(C)c2cc(C#N)c(N3CCN(C(=O)CCO)[C@H](C4CC4)C3)nc2C2CC2)ccn1 [Compound 730, (R)-6-cyclopropyl-2-(3-cyclopropyl-4-(3-hydroxypropanoyl)piperazin-1-yl)-5-(methyl(2-vinylpyridin-4-yl)amino)nicotinonitrile] | < 500 | < 500 | < 500 | –
24 | C=Cc1cnnc(-c2cc(C#N)c(N3CCN(C(=O)C4CC4)[C@H](C4CC4)C3)nc2C2CC2)c1 [Compound 696, (R)-2-(4-(cyclopropanecarbonyl)-3-cyclopropylpiperazin-1-yl)-6-cyclopropyl-5-(5-vinylpyridazin-3-yl)nicotinonitrile] | < 500 | < 500 | < 500 | –
25 | N#Cc1cc(-c2cccc3nc(O)ccc23)c(C2CC2)nc1N1CCN(C(=O)C2CC2)[C@H](C2CC2)C1 [Compound 476, (R)-2-(4-(cyclopropanecarbonyl)-3-cyclopropylpiperazin-1-yl)-6-cyclopropyl-5-(2-hydroxyquinolin-5-yl)nicotinonitrile] | < 500 | 500 to 1000 | < 500 | –
